Laboratory results: PMC10865860 (mBio, 2023)
Like-named read-outs stand apart in the source and are kept apart here. Where a SMILES comes first, the peptide text is derived from it. The star is where a group is joined. Cbz = O=C(OCc1ccccc1)*

Key:
[1] = test system: SARS-CoV-2 pseudoviruses in cells expressing hACE2 plus TMPRSS2; assay: microbe, parasite or virus in culture; type: cell-based; details: Severe acute respiratory syndrome coronavirus 2, HEK-293T, read-out: EC50 Pseudovirus entry assay hACE2+ TMPRSS2
MERS-CoV 3CLpro [2] = molecular target: T1, MERS-CoV 3CLpro (Middle East respiratory syndrome-related coronavirus, UniProt K9N7C7); assay: biochemical
T1 sequence (K9N7C7 3248-3553 limits assumed): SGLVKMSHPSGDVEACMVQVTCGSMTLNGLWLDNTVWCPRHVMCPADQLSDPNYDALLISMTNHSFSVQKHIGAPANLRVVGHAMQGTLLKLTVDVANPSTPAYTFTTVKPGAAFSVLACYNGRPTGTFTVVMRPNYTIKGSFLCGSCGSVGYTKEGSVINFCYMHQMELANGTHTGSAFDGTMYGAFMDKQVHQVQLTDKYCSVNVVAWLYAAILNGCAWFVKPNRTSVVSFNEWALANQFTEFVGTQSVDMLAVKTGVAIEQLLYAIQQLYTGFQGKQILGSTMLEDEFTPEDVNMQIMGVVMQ

SARS-CoV-2 replicon [3] = assay: microbe, parasite or virus in culture; type: cell-based; details: Severe acute respiratory syndrome coronavirus 2, read-out: EC50 SARS-CoV-2 replicon
SARS-CoV-2 3CLpro [4] = molecular target: T2, SARS-CoV-2 3CLpro (Severe acute respiratory syndrome coronavirus 2, UniProt P0DTD1); assay: biochemical
[5] = test system: SARS-CoV-2 pseudoviruses in cells expressing hACE2; assay: microbe, parasite or virus in culture; type: cell-based; details: Severe acute respiratory syndrome coronavirus 2, HEK-293T, read-out: EC50 Pseudovirus entry assay hACE2
cathepsin B = molecular target: T3, cathepsin B (Homo sapiens, UniProt P07858); assay: biochemical
T3 construct: purchased Abcam

SARS-CoV-2 3CLpro [6] = molecular target: T2, SARS-CoV-2 3CLpro; details: read-out: IC50 SARS-CoV-2 (3CLpro); cited from earlier work
cathepsin L = molecular target: T4, cathepsin L (Homo sapiens, UniProt P07711); assay: biochemical
T4 construct: purchased AnaSpec
T4 sequence (P07711 114-333): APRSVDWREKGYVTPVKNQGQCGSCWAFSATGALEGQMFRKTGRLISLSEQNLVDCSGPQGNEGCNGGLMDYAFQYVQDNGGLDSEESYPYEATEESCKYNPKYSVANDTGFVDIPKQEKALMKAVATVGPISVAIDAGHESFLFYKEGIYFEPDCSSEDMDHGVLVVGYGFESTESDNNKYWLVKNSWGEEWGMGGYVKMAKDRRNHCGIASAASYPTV

chymotrypsin = type: biochemical, human
thrombin = molecular target: T5, thrombin (Homo sapiens, UniProt P00734); assay: biochemical
T5 construct: purchased AnaSpec

cathepsin D = molecular target: T6, cathepsin D (Homo sapiens, UniProt P07339); assay: biochemical
T6 construct: purchased Abcam
T6 sequence (P07339 65-412): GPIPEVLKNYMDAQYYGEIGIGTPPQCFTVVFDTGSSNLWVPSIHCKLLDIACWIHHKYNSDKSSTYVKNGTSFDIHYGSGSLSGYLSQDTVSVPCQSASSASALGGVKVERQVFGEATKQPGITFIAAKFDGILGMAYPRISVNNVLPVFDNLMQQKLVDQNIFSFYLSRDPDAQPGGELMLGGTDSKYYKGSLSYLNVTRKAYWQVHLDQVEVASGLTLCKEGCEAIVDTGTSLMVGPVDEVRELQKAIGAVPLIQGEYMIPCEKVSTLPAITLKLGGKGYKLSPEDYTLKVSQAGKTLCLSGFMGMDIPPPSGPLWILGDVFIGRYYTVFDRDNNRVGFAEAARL

MERS-CoV 3CLpro [7] = molecular target: T1, MERS-CoV 3CLpro; details: read-out: IC50 MERS-CoV (3CLpro); cited from earlier work
cathepsin G = molecular target: T7, cathepsin G (Homo sapiens, UniProt P08311); assay: biochemical
T7 construct: purchased Novus Biological
T7 sequence (P08311 21-255): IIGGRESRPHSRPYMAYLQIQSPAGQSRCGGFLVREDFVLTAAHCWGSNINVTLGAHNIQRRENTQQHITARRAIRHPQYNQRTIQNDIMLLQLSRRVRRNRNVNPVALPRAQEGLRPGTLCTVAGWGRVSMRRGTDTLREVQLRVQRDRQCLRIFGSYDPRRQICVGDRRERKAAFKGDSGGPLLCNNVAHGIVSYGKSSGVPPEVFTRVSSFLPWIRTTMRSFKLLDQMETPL

neutrophil elastase = molecular target: T8, neutrophil elastase (Homo sapiens, UniProt P08246); assay: biochemical
T8 construct: purchased Sigma-Aldrich
T8 sequence (P08246 30-267): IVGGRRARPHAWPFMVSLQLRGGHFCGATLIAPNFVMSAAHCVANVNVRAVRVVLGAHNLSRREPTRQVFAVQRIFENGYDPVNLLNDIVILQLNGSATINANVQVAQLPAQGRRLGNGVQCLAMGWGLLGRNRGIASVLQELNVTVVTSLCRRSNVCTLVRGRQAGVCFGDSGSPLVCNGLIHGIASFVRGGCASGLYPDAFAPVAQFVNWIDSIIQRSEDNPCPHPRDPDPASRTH

SARS-CoV-2 replicon [8] = details: cited from earlier work

SMILES | EC50 [1] | IC50 (MERS-CoV 3CLpro [2]) | EC50 (SARS-CoV-2 replicon [3]) | IC50 (SARS-CoV-2 3CLpro [4]) | EC50 [5] | IC50 (cathepsin B) | IC50 (SARS-CoV-2 3CLpro [6]) | IC50 (cathepsin L) | IC50 (chymotrypsin) | IC50 (thrombin) | IC50 (cathepsin D) | IC50 (MERS-CoV 3CLpro [7]) | IC50 (cathepsin G) | IC50 (neutrophil elastase) | EC50 (SARS-CoV-2 replicon [8])
CC(C)[C@H](NC(=O)OCc1ccccc1)C(=O)N[C@H](C=O)Cc1ccccc1 [MDL28170] (Cbz-Val-Phe-aldehyde) | > 50 µM | > 50 µM | > 50 µM | > 50 µM | 0.01 ± 0.03 µM | – | – | – | – | – | – | – | – | – | –
CC(C)CC(NC(=O)OCC1CC1c1cccc(F)c1)C(=O)NC(CC1CCNC1=O)C(O)S(=O)(=O)O (stereo not shown) [5d] | > 50 µM | – | – | – | 0.05 ± 0.02 µM | 0.23 ± 0.08 µM | 0.19 ± 0.02 µM | 0.02 ± 0.02 µM | > 50 µM | > 50 µM | > 50 µM | 0.07 ± 0.03 µM | > 50 µM | > 50 µM | –
COc1ccccc1C1CC1COC(=O)NC(CC(C)C)C(=O)NC(C=O)CC1CCNC1=O (stereo not shown) [11c] | > 50 µM | – | – | – | 0.13 ± 0.03 µM | 0.31 ± 0.05 µM | 0.14 ± 0.04 µM | 0.03 ± 0.01 µM | > 50 µM | > 50 µM | > 50 µM | 0.12 ± 0.11 µM | > 50 µM | > 50 µM | –
N=C(N)c1ccc2cc(OC(=O)c3ccc(N=C(N)N)cc3)ccc2c1 [Nafamostat] | – | > 50 µM | > 50 µM | > 50 µM | > 50 µM | – | – | – | – | – | – | – | – | – | –
COc1ccccc1C1CC1COC(=O)NC(CC(C)C)C(=O)NC(CC1CCNC1=O)C(O)S(=O)(=O)O (stereo not shown) [11d] | > 50 µM | – | – | – | 0.12 ± 0.05 µM | 0.27 ± 0.06 µM | 0.14 ± 0.05 µM | 0.02 ± 0.02 µM | > 50 µM | > 50 µM | > 50 µM | 0.07 ± 0.01 µM | > 50 µM | > 50 µM | 0.012 µM
CC(C)CC(NC(=O)OCC1CC1c1cccc(F)c1)C(=O)NC(C=O)CC1CCNC1=O (stereo not shown) [5c] | > 50 µM | – | – | – | 0.06 ± 0.03 µM | 0.24 ± 0.05 µM | 0.18 ± 0.03 µM | 0.03 ± 0.01 µM | > 50 µM | > 50 µM | > 50 µM | 0.08 ± 0.03 µM | > 50 µM | > 50 µM | 0.012 µM
